# Measured values as given in patent US6599930B2, “Coniosetin and derivatives thereof, process for the preparation and the use thereof” (Aventis Pharma Deutschland GmbH, priority 2000, dated 2003).
# Read-outs that look alike come from different tables or passages of the source.
# Columns and labels:
# Tolerability = conditions: at the effective concentration and at higher concentrations
# Solubility = type: physicochemical
# bacteria [1] = assay: Antibacterial effect, general statements; type: cell-based; conditions: general statement
# Aspergillus niger = assay: Agar diffusion test; type: cell-based; conditions: for zone of inhibition at 10000 µM: 40 h, A. niger, 28° C., 40 hours, read-out: Zone of inhibition, diameter
# Procedure: (§1) Agar plates were prepared with a 2 ml inoculum of Staphylococcus aureus in 200 ml of agar solution, a 2 ml inoculum of Escherichia coli in 200 ml of agar; a 2 ml inoculum of Candida albicans in 200 ml of agar solution; a 1 ml inoculum of Aspergillus niger in 200 ml of agar solution and a 3 ml inoculum of Streptomyces murinus in 200 ml of agar solution. The coniosetin was applied in a 10 mM solution to disks with a diameter of 6 mm and placed on the agar plate. The inoculated Staphylococcus, E. coli and Candida plates were incubated at 37° C. for 16 hours, the A. niger plate was incubated at 28° C. for 40 hours, and the Streptomyces plate was incubated at 28° C. for 16 hours. Zones of inhibition with the following diameters (mm) were then observed.
# Streptomyces murinus = assay: Agar diffusion test; type: cell-based; conditions: 16 h, S. murinus, 28° C., read-out: Zone of inhibition, diameter
# Procedure: as §1
# Candida albicans = assay: Agar diffusion test; type: cell-based; conditions: for zone of inhibition at 10000 µM: 16 h, C. albicans, 37° C., 16 hours, read-out: Zone of inhibition, diameter
# Procedure: as §1
# Escherichia coli [2] = assay: Agar diffusion test; type: cell-based; conditions: E. coli, 37° C., 16 hours
# Procedure: as §1
# Staphylococcus aureus [3] = assay: Agar diffusion test; type: cell-based; conditions: 16 h, S. aureus, 37° C., read-out: Zone of inhibition, diameter
# Procedure: as §1
# S. pyogenes = assay: MIC, serial dilution test; type: cell-based; conditions: Streptococcus pyogenes
# From the text: (§2) Table 1 summarizes the minimum inhibitory concentrations (MIC) of coniosetin by way of example.
# Streptococcus gr. G = assay: MIC, serial dilution test; type: cell-based
# From the text: as §2
# S. mitis = assay: MIC, serial dilution test; type: cell-based; conditions: Streptococcus mitis
# From the text: as §2
# S. agalactiae = assay: MIC, serial dilution test; type: cell-based; conditions: Streptococcus agalactiae, ery R
# From the text: as §2
# S. pneumoniae = assay: MIC, serial dilution test; type: cell-based; conditions: Streptococcus pneumoniae
# From the text: as §2
# Enterococcus faecium = assay: MIC, serial dilution test; type: cell-based; conditions: teiR vanR eryR tetR
# From the text: as §2
# Escherichia coli [4] = assay: MIC, serial dilution test; type: cell-based; conditions: 18 h
# From the text: as §2
# Staphylococcus aureus [5] = assay: MIC, serial dilution test; type: cell-based
# From the text: as §2
# S. sanguis = assay: MIC, serial dilution test; type: cell-based; conditions: ery R
# From the text: as §2
# S. epidermidis = assay: MIC, serial dilution test; type: cell-based; conditions: Staphylococcus epidermidis
# From the text: as §2
# Enterococcus faecalis = assay: MIC, serial dilution test; type: cell-based
# From the text: as §2
# Stability in solution = type: physicochemical
# bacteria [6] = conditions: as described in the cited literature; cited from earlier work
# [7] = 10 μl of 10 mM solution on 6 mm disk
# [8] = 20 μl of 10 mM solution on 6 mm disk
# [9] = 40 μl of 10 mM solution on 6 mm disk
# [10] = compared with the antibacterial effect (Example 8)
molecule,measurement,setting,value
C/C=C/C=C/C1C(C)=CC2CC(C)CCC2C1(C)/C(O)=C1\C(=O)NC(C(C)O)C1=O (centres unmarked) [coniosetin],Tolerability,Tolerability,well-tolerated
same,Solubility in organic solvents,Solubility; organic solvents of medium polarity and above,soluble
same,Solubility in water,Solubility; water,low solubility
same,Antibacterial effect,bacteria [1],very good antibacterial activity
same,zone of inhibition at 10000 µM,Aspergillus niger; [7],0 mm
same,zone of inhibition at 10000 µM,Aspergillus niger; [8],0 mm
same,zone of inhibition at 10000 µM,Aspergillus niger; [9],8 mm
same,Inhibitory effect on fungi,Aspergillus niger; [10],inhibitory effect—although weaker
same,zone of inhibition at 10000 µM,Streptomyces murinus; [7],0 mm
same,zone of inhibition at 10000 µM,Streptomyces murinus; [8],9 mm
same,zone of inhibition at 10000 µM,Streptomyces murinus; [9],10 mm
same,zone of inhibition at 10000 µM,Candida albicans; [7],9 mm
same,zone of inhibition at 10000 µM,Candida albicans; [8],10 mm
same,zone of inhibition at 10000 µM,Candida albicans; [9],10.5 mm
same,Inhibitory effect on yeasts,Candida albicans; [10],inhibitory effect—although weaker
same,"Zone of inhibition, diameter",Escherichia coli [2]; [8],0 mm
same,"Zone of inhibition, diameter",Escherichia coli [2]; [9],0 mm
same,zone of inhibition at 10000 µM,"Escherichia coli [2]; Escherichia coli, 10 μl of 10 mM solution on 6 mm disk, read-out: Zone of inhibition, diameter",0 mm
same,zone of inhibition at 10000 µM,Staphylococcus aureus [3]; [7],13 mm
same,zone of inhibition at 10000 µM,Staphylococcus aureus [3]; [8],14.5 mm
same,zone of inhibition at 10000 µM,Staphylococcus aureus [3]; [9],15.5 mm
same,MIC,"S. pyogenes; 18 h, ery R, after 18 h",1.2 µg/mL
same,MIC,"S. pyogenes; 18 h, ery S, after 18 h",0.6 µg/mL
same,MIC,"S. pyogenes; 24 h, ery R",1.2 µg/mL
same,MIC,"S. pyogenes; 24 h, ery S",1.2 µg/mL
same,MIC,"S. pyogenes; 48 h, ery R",1.2 µg/mL
same,MIC,"S. pyogenes; 48 h, ery S",1.2 µg/mL
same,MIC,"Streptococcus gr. G; 18 h, ery R, after 18 h",0.6 µg/mL
same,MIC,"Streptococcus gr. G; 18 h, ery S, after 18 h",1.2 µg/mL
same,MIC,"Streptococcus gr. G; 24 h, ery R",0.6 µg/mL
same,MIC,"Streptococcus gr. G; 24 h, ery S",1.2 µg/mL
same,MIC,"Streptococcus gr. G; 48 h, ery R",0.6 µg/mL
same,MIC,"Streptococcus gr. G; 48 h, ery S",1.2 µg/mL
same,MIC,"S. mitis; 18 h, ery R, after 18 h",2.5 µg/mL
same,MIC,"S. mitis; 18 h, ery S, after 18 h",1.2 µg/mL
same,MIC,"S. mitis; 24 h, ery R",2.5 µg/mL
same,MIC,"S. mitis; 24 h, ery S",2.5 µg/mL
same,MIC,"S. mitis; 48 h, ery R",2.5 µg/mL
same,MIC,"S. mitis; 48 h, ery S",2.5 µg/mL
same,MIC,S. agalactiae; 24 h,2.5 µg/mL
same,MIC,S. agalactiae; 48 h,2.5 µg/mL
same,MIC,S. agalactiae; after 18 h,2.5 µg/mL
same,MIC,"S. pneumoniae; 18 h, ery R (first listed strain), after 18 h",0.6 µg/mL
same,MIC,"S. pneumoniae; 18 h, ery R (second listed strain), after 18 h",0.6 µg/mL
same,MIC,"S. pneumoniae; 18 h, ery R (third listed strain), after 18 h",0.6 µg/mL
same,MIC,"S. pneumoniae; 18 h, ery R pen R (first listed strain), after 18 h",0.6 µg/mL
same,MIC,"S. pneumoniae; 18 h, ery R pen R (second listed strain), after 18 h",0.6 µg/mL
same,MIC,"S. pneumoniae; 18 h, ery S pen R, after 18 h",0.6 µg/mL
same,MIC,"S. pneumoniae; 18 h, ery S, after 18 h",0.6 µg/mL
same,MIC,"S. pneumoniae; 24 h, ery R (first listed strain)",0.6 µg/mL
same,MIC,"S. pneumoniae; 24 h, ery R (second listed strain)",0.6 µg/mL
same,MIC,"S. pneumoniae; 24 h, ery R (third listed strain)",0.6 µg/mL
same,MIC,"S. pneumoniae; 24 h, ery R pen R (first listed strain)",0.6 µg/mL
same,MIC,"S. pneumoniae; 24 h, ery R pen R (second listed strain)",0.6 µg/mL
same,MIC,"S. pneumoniae; 24 h, ery S",0.6 µg/mL
same,MIC,"S. pneumoniae; 24 h, ery S pen R",1.2 µg/mL
same,MIC,"S. pneumoniae; 48 h, ery R (first listed strain)",0.6 µg/mL
same,MIC,"S. pneumoniae; 48 h, ery R (second listed strain)",0.6 µg/mL
same,MIC,"S. pneumoniae; 48 h, ery R (third listed strain)",1.2 µg/mL
same,MIC,"S. pneumoniae; 48 h, ery R pen R (first listed strain)",0.6 µg/mL
same,MIC,"S. pneumoniae; 48 h, ery R pen R (second listed strain)",0.6 µg/mL
same,MIC,"S. pneumoniae; 48 h, ery S",0.6 µg/mL
same,MIC,"S. pneumoniae; 48 h, ery S pen R",1.2 µg/mL
same,MIC,Enterococcus faecium; 24 h,1.2 µg/mL
same,MIC,Enterococcus faecium; 48 h,2.5 µg/mL
same,MIC,Enterococcus faecium; after 18 h,1.2 µg/mL
same,MIC,Escherichia coli [4],> 40 µg/mL
same,MIC,"Staphylococcus aureus [5]; 18 h, S. aureus, oflR oxaR eryR tetR, after 18 h",0.6 µg/mL
same,MIC,"Staphylococcus aureus [5]; 18 h, S. aureus, oxa R ery R, after 18 h",0.3 µg/mL
same,MIC,"Staphylococcus aureus [5]; 18 h, S. aureus, oxa S ery R (first listed strain), after 18 h",0.3 µg/mL
same,MIC,"Staphylococcus aureus [5]; 18 h, S. aureus, oxa S ery R (second listed strain), after 18 h",0.6 µg/mL
same,MIC,"Staphylococcus aureus [5]; 18 h, S. aureus, oxaR eryR tetR, after 18 h",0.3 µg/mL
same,MIC,"Staphylococcus aureus [5]; 18 h, ery S, after 18 h",0.3 µg/mL
same,MIC,"Staphylococcus aureus [5]; 24 h, S. aureus, oflR oxaR eryR tetR",0.6 µg/mL
same,MIC,"Staphylococcus aureus [5]; 24 h, S. aureus, oxa R ery R",0.3 µg/mL
same,MIC,"Staphylococcus aureus [5]; 24 h, S. aureus, oxa S ery R (first listed strain)",0.3 µg/mL
same,MIC,"Staphylococcus aureus [5]; 24 h, S. aureus, oxa S ery R (second listed strain)",0.6 µg/mL
same,MIC,"Staphylococcus aureus [5]; 24 h, S. aureus, oxaR eryR tetR",0.3 µg/mL
same,MIC,"Staphylococcus aureus [5]; 24 h, ery S",0.3 µg/mL
same,MIC,"Staphylococcus aureus [5]; 48 h, S. aureus, oflR oxaR eryR tetR",0.6 µg/mL
same,MIC,"Staphylococcus aureus [5]; 48 h, S. aureus, oxa R ery R",0.3 µg/mL
same,MIC,"Staphylococcus aureus [5]; 48 h, S. aureus, oxa S ery R (first listed strain)",0.3 µg/mL
same,MIC,"Staphylococcus aureus [5]; 48 h, S. aureus, oxa S ery R (second listed strain)",0.6 µg/mL
same,MIC,"Staphylococcus aureus [5]; 48 h, S. aureus, oxaR eryR tetR",0.3 µg/mL
same,MIC,"Staphylococcus aureus [5]; 48 h, ery S",0.6 µg/mL
same,MIC,S. sanguis; 24 h,1.2 µg/mL
same,MIC,S. sanguis; 48 h,2.5 µg/mL
same,MIC,S. sanguis; after 18 h,1.2 µg/mL
same,MIC,"S. epidermidis; 18 h, oxa R ery R, after 18 h",0.6 µg/mL
same,MIC,"S. epidermidis; 18 h, oxa S ery R, after 18 h",0.3 µg/mL
same,MIC,"S. epidermidis; 24 h, oxa R ery R",1.2 µg/mL
same,MIC,"S. epidermidis; 24 h, oxa S ery R",0.3 µg/mL
same,MIC,"S. epidermidis; 48 h, oxa R ery R",1.2 µg/mL
same,MIC,"S. epidermidis; 48 h, oxa S ery R",0.3 µg/mL
same,MIC,"Enterococcus faecalis; ery R, 24 h",2.5 µg/mL
same,MIC,"Enterococcus faecalis; ery R, 48 h",2.5 µg/mL
same,MIC,"Enterococcus faecalis; ery R, after 18 h",2.5 µg/mL
same,MIC,"Enterococcus faecalis; ery S, 24 h, read-out: MIC",2.5 µg/mL
same,MIC,"Enterococcus faecalis; ery S, 48 h, read-out: MIC",2.5 µg/mL
same,MIC,"Enterococcus faecalis; ery S, after 18 h, read-out: MIC",2.5 µg/mL
same,Stability,Stability in solution; neutral and weakly acidic media,Stable
same,Stability,Stability in solution; strongly acidic and strongly alkaline solution,unstable
harzianic acid,Antibacterial activity,bacteria [6],very low activity
CCCCCCC/C=C/C(=O)N1C(O)=C(C(C)=O)C(=O)[C@H]1CC(C)C [reutericyclin],Antibacterial activity,bacteria [6],weak antibacterial activity
